Results as given in publication PMC4349960, “[^18F]FE@SUPPY: a suitable PET tracer for the adenosine A3 receptor? An in vivo study in rodents” (European Journal of Nuclear Medicine and Molecular Imaging, 2015).
“Also recorded” adds a separate entry of the source.

Key:
[1] = molecular target: T1, CHO cells expressing the human A3R (CHO-A3) (Homo sapiens, UniProt P0DMS8); assay: Xenograft mouse model PET (CHO vs CHO-A3 solid tissue masses); assay type: in vivo, mice
T1 construct: Karl-Norbert Klotz (University of Würzburg); host or cells: CHO cells stably transfected (CHO-A3), grown as subcutaneous masses in NMRI-nu/nu mice
T1 sequence (P0DMS8 1-318): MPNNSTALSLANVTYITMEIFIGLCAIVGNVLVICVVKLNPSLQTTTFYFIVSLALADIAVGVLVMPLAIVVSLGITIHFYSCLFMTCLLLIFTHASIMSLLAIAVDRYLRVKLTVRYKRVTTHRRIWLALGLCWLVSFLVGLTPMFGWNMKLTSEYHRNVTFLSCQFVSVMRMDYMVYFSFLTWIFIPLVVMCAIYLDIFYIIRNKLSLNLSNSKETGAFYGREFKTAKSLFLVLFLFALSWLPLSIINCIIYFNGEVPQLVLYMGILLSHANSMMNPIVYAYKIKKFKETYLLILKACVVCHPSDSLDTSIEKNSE
Protocol: Adult male Sprague-Dawley rats (Him:OFA; Animal Research Institute, Himberg, Austria) weighing 307 ± 35 g were kept under controlled environmental conditions (22 ± 1 °C, 40 – 70 % humidity, 12-h light/dark cycle) with free access to standard laboratory animal diet and tap water. Before being used in the experiments, the animals were allowed to adapt to the new conditions for at least a week. Prior to each experiment, the animals were placed in a chamber containing 2.5 % isoflurane in oxygen. When unconscious, the animals were taken from the chamber and kept under anaesthesia with 1.8 % isoflurane administered via a mask during the whole experiment. Pathogen-free, female NMRI-nu/nu mice (Taconic, Denmark) weighing 28.1 ± 0.8 g were housed under sterile conditions. Mice were injected subcutaneously into both upper flanks with 100 μL of a cell suspension in phosphate-buffered saline containing 10^6 CHO cells (right side) or 10^6 CHO-A3 cells (left side). During the imaging periods of 60 or 90 min (rats or xenografted mice, respectively) the isoflurane level was adjusted depending on the depth of anaesthesia. A humidifier was used to moisten the gas mixture before supplying it to the animal.
Around 17 days after cell inoculation, animals in the xenograft group were positioned in the imaging chamber and a dynamic 90-min PET scan was initiated at the start of [^18F]FE@SUPPY injection (2.21 ± 0.75 MBq dissolved in 100 μl physiological saline, pH 7.4; three animals) via a tail vein under isoflurane anaesthesia (2 %). Additionally, in this group, [^18F]FDG PET was performed 1 day prior to the [^18F]FE@SUPPY experiments. […] In brief, mice were deprived of food for 6 – 8 h before [^18F]FDG injection via a tail vein. Mice had access to drinking water at all times. Body warming was achieved by placing the entire cage on a heating pad kept at 38 °C. Warming was started around 30 min before tracer injection and was continued throughout the uptake and imaging period. [^18F]FDG (6.03 ± 1.31 MBq dissolved in 100 μL physiological saline, pH 7.4; three animals) was injected via a tail vein under isoflurane anaesthesia (2 %). Mice were kept under isoflurane anaesthesia throughout the whole uptake and imaging period. A 10-min static image was acquired at 1 h after [^18F]FDG injection. […]
For all PET scans (rats and xenografted mice), list mode data were acquired with an energy window of 350 – 750 keV (rats) or 250 – 750 keV (mice) and a 6-ns timing window. Before each PET scan, a transmission scan using a ^57Co point source was recorded over 10 min. […] A calibration factor for converting units of microPET images into absolute radioactivity concentration units was first generated by imaging a phantom filled with a known concentration of [^18F]FDG. […]

[2] = In vitro plasma stability, human plasma; assay type: in vitro ADME; settings: 0-120 min
Protocol: Experiments were conducted following a standard protocol. Briefly, [^18F]FE@SUPPY was added to lithium-heparinized human or rat plasma and after predetermined times (0, 60 and 120 min), the incubation mixture was eluted through a preconditioned SPE cartridge. The washed and newly eluted eluate solutions were injected into the radio-HPLC system (HPLC system as described in the section Ex vivo stability). The stationary phase was an analytical HPLC column LiChrospher LICHROCART® RP-18e (5 μm), 125 × 4 mm precolumn, and the mobile phase consisted of sodium citrate tribasic dehydrate (buffered at 0.034 M, pH 2.5)/acetonitrile 32:68 at a flow rate of 2 mL/min. Samples were incubated with a Thermomixer Compact from Eppendorf (Vienna, Austria) and centrifuged with a Universal 30 RF centrifuge from Hettich (Tuttlingen, Germany).

With `CCSC(=O)c1c(CC)nc(-c2ccccc2)c(C(=O)OCC[18F])c1CC` [[^18F]FE@SUPPY, 5-(2-[^18F]fluoroethyl)-2,4-diethyl-3-(ethylsulfanylcarbonyl)-6-phenylpyridine-5-carboxylate] the “Xenograft model of human A3R, finding” value ([1]; compared to [^18F]FDG) was “Specific uptake in CHO-A3 solid mass (p ≤ 0.03) compared to [^18F]FDG”, the “increased uptake (AUC) in CHO-A3 versus CHO tissue masses” value ([1]; xenografted NMRI-nu/nu mice, 90-min PET) was “around 1.42 fold” and the “stability in human plasma” value [2] was “no degradation; also recorded: no metabolites were observed; also recorded: Stable over 120 min in human plasma”.
